# Laboratory results as given in patent US6878747B2, “Systemic formulations containing beta-carotene and derivatives thereof” (priority 2001, dated 2005).
# What was measured:
# [1] = test system: right calf of a health professional; conditions: in vivo
# Source text: Retinol, retinal, and retinoic acid, were each soluabilized in THF as described above and used as follows. A fingertip amount of each (e.g. retinoic acid, retinol retinal?) was rubbed into the right calf of a health professional.
# [2] = Soluabilization in THF, Example 11; format: physicochemical; conditions: hand shaking, results approximate
# Protocol: All experimental substances (retinol, retinoic acid, 9-cis retinoic acid, retinal) were from Sigma (St. Louis, Mo.). All experimental substances were provided in sealed ampules.
# The solvent, Tetrahydrofuran (stabilized with BHT) was also from Sigma.^1
# ^1 In the soluabilization experiments described in Examples 11 and 12 a small amount of yellow material appeared on the bottom of the stopper. In addition, since THF is somewhat volatile, the results are approximate.
# 2 ml shell vials from Electron Microscopy Sciences (Fort Washington, Pa.) Hamilton glass syringes (100 microliter, 250 microliter, 500 microliter) were from Fisher Scientific (Pittsburgh, Pa.). Silicone stoppers and other glassware were also from Fisher Scientific.
# All of a retinoic acid ampule (100 mg ) was poured into a 2 ml shell vial and stoppered with a silicon stopper. Using a 500 microliter Hamilton syringe, 500 microliters of THF was added to the vial and then shaken by hand.
# a. 25 mg ampule of retinol was poured into a 2 ml shell vial and it soluabilized completely in 250 microliters of THF.
# b. 100 mg ampule of retinol was poured into a vial and it soluabilized completely in 0.5 ml of THF.
# c. 100 mg ampule of retinol was poured into a vial and it soluabilized completely in 0.1 ml THF.
# 20 microliters THF from a Hamilton syringe was added to an ampule containing 1 mg of 9-cis retinoic acid. It appeared that complete soluability was achieved.
# A 100 mg ampule of retinal was emptied into a 2 ml shell vial, and was completely soluabilized with hand shaking in 100 microliters of THF.
# [3] = Soluabilization in THF, Example 12; format: physicochemical; conditions: results approximate
# Protocol: All materials and sources were the same as in Example 11.The only additions were the use of 4.3 ml glass shell vials from Electron Microscopy Sciences, 10 ml glass centrifuge tubes from Fisher, and a 1.25 ml glass Hamilton syringe from Fisher.
# All of a retinoic acid (1 gram) ampule was poured into a 10 ml glass centrifuge tube and stoppered with a silicon stopper. 7 ml of THF was added to the tube and then shaken by hand. This was performed twice.
# All of a 1 gram ampule was poured into a 4.3 ml shell vial and stoppered with a silicon stopper. Using a 1.25 ml Hamilton syringe, 1.0 ml of THF was added to the vial and then shaken by hand. It soluabilized completely.
# 10 microliters THF from a Hamilton syringe was added to a ampule containing 1 mg of 9-cis retinoic acid. It appeared that complete soluability was achieved.
# A 500 mg ampule of retinal was emptied into a 2 ml shell vial, and was completely soluabilized with hand shaking in 0.5 ml of THF.
# [4] = test system: intra-abdominal sepsis in a rat model; conditions: dietary supplementation; beta-carotene 90 mg/kg; cited from earlier work
# [5] = test system: human with male pattern baldness; experiment: Topical use in human male pattern baldness; format: in vivo; conditions: in THF, applied daily to thinning vertex; within 4 months
# Source text: A human with male pattern baldness applies retinol in THF daily to their thinning vertex.
# [6] = Maximum concentration of beta-carotene dissolving in THF; format: physicochemical
# Protocol: The formulation broadly comprises from about 0.1 to about 9.3 mg and preferably from about 1 to about 6 mg of beta-carotene per ml of tetrahydrofuran. The maximum concentration of beta-carotene capable of dissolving in THF is 9.3 mg/ml. Solubility problems arise above this concentration of beta-carotene. Beta-carotene and derivatives thereof for use in the present invention is commercially available from Sigma Chemical Co. or Fisher Scientific Co.
# human hepatocytes = experiment: Absorption of beta-carotene in THF in human hepatocytes; format: in vitro ADME; conditions: 10 μM beta-carotene, 0.05% THF, 24 hours incubation; three samples
# Protocol: The following experiment was performed three times to determine the absorption of beta-carotene in THF in human hepatocytes.
# Beta-carotene was dissolved in a solution containing 99.9% (w/w) tetrahydrofuran (THF) with 0.025% (w/w) butylated hydroxytoluene (BHT) to obtain a 2000× (20 mM) stock solution. While the incubation media was rapidly stirred, the stock solution was added to create a final 1× dosing solution containing 10 μM beta-carotene and 0.05% THF.
# Hepatocytes were isolated and cryopreserved according to the methods described in Li, A. P., et al., Isolation and culturing of hepatocytes from human liver, J. Tiss. Culture Methods, 14:139-146(1992); Li rat and human hepatocytes as multicellular spheroids, In Vitro Cell. Dev. Biol., 28A:673-677 (1992); and Loretz, L. J. et al., Promutagen activation by freshly isolated and cryopreserved rat hepatocytes, Environ. Mol. Mutag., 12(3):335-341. Portions of liver tissue were processed into hepatocytes by collagenase-based digestion of connective tissue, followed by manual and mechanical separation and washing with media. Isolated hepatocytes were counted to determine yield, and viability was measured using Trypan Blue™ exclusion. The viability of the cells was 90%. The cells were resuspended in the plating media described above at a density of 0.7×10^6 cells/mL. […]
# [7] = test system: human melanoma cell cultures; experiment: Beta-carotene treatment of melanoma cell cultures, Example 9; format: cell-based; conditions: beta-carotene 33 mg/ml in medium, 0.5% THF, 7 days
# Protocol: Experiment: Beta-carotene in tetrahydrofuran (THF) was added to McCoy's 5A modified medium at a concentration of 33 mg/ml with a final concentration of 0.5% THF. This supplemented medium was added to Leighton tubes (containing melanoma cells) after removal of un-supplemented medium and was replaced every 2 days during the 7 day experimental period. At the end of 7 days, the cultures were fixed in methanol and the cover slips were Giemsa stained.
# [8] = test system: human melanoma cell cultures; experiment: Guanosine then beta-carotene treatment of melanoma cell cultures, Example 10; format: cell-based; conditions: 7 days
# Protocol: Guanosine was added to McCoy's 5A modified medium at a concentration of 3 mg/ml. This supplemented medium was added to Leighton tubes after removal of an non-supplemented medium and was replaced every 2 days for 7 days. Beta-carotene in THF was added to McCoy's 5A modified medium at a concentration of 33 mg/ml with a final concentration of 0.5% THF. This supplemented medium was added to the Leighton tubes after removal of guanosine supplemented medium and was replaced every 2 days for an additional 7 day experimental period. At the end of 14 days, the cultures were fixed in methanol and the cover slips were Giemsa stained.
# [9] = beta-carotene 33 mg/ml, 0.5% THF, after 7 days of guanosine 3 mg/ml
compound,measurement,setting,value
CC1=C(/C=C/C(C)=C/C=C/C(C)=C/C(=O)O)C(C)(C)CCC1 [retinoic acid],"signs of toxicity, topically or systemically",[1],no signs of toxicity
CC1=C(/C=C/C(C)=C/C=C/C(C)=C/C=O)C(C)(C)CCC1 [retinal],soluability in THF,[2],about 1 gm/ml THF
same,soluability in THF,[3],about 1 gm/ml THF
same,"signs of toxicity, topically or systemically",[1],no signs of toxicity
Vitamin A,protective effect on intra-abdominal sepsis,[4],significant protective effect
CC1=C(/C=C/C(C)=C\C=C\C(C)=C\C(=O)O)C(C)(C)CCC1 [9-cis retinoic acid],soluability in THF,[2],at least 50 mg/ml THF
same,soluability in THF,[3],about 100 mg/ml THF
CC1=C(/C=C/C(C)=C/C=C/C(C)=C/CO)C(C)(C)CCC1 [retinol],soluability in THF,[2],about 1 gm/ml THF
same,soluability in THF,[3],about 1 gm/ml THF
same,"signs of toxicity, topically or systemically",[1],no signs of toxicity
same,"new hair growth (hair counts, investigator and patient assessment)",[5],significant new hair growth
CC1=C(/C=C/C(C)=C/C=C/C(C)=C/C=C/C=C(C)/C=C/C=C(C)/C=C/C2=C(C)CCCC2(C)C)C(C)(C)CCC1 [beta-carotene],maximum concentration of beta-carotene capable of dissolving in THF,[6],9.3 mg/mL
same,"detection of beta-carotene in the cells (dark regions, light microscope)",human hepatocytes,presence of beta-carotene in the cells
same,cell death in culture compared with control cultures,[7],a large segment of the starting population died
same,morphology of the remaining cells,[7]; Giemsa stained,"most had triangular morphology and a large nucleus, consistent with neural cells, or were fusiform in shape"
same,cell death in culture,[8]; [9],did not cause the extensive cell death
same,morphology of the surviving cells,[8]; [9],most of those had a neuronal morphology
same,protective effect on intra-abdominal sepsis,[4],lesser effect
"Nc1nc2c(ncn2[C@@H]2O[C@H](CO)[C@@H](O)[C@H]2O)c(=O)[nH]1 [guanosine, Guanosine]",phenotypic changes in the overall cell population,[8]; guanosine 3 mg/ml in medium,many cells with an increased nuclear to cytoplasmic ratio
